Measured values: ChEMBL document CHEMBL4270495, “Oleanane-, ursane-, and quinone methide friedelane-type triterpenoid derivatives: Recent advances in cancer treatment” (Eur J Med Chem, 2017)

Experiments:
Format in all cases: functional, cell-based
MDA-MB-231 = experiment: Cytotoxicity in human MDA-MB-231 cells assessed as reduction in cell viability incubated for 24 hrs by MTT assay; conditions: MDA-MB-231, 24 h
MCF7 [1] = experiment: Cytotoxicity in human MCF7 cells assessed as reduction in cell viability incubated for 24 hrs by MTT assay; conditions: MCF7, 24 h
HL-60 = experiment: Cytotoxicity in human HL60 cells assessed as reduction in cell viability incubated for 24 hrs by MTT assay; conditions: HL-60, 24 h
T47D = experiment: Cytotoxicity in human T47D cells assessed as reduction in cell viability incubated for 24 hrs by MTT assay
MCF-12A = experiment: Cytotoxicity in human MCF12A cells assessed as reduction in cell viability incubated for 24 hrs by MTT assay
MDA-MB-468 = experiment: Cytotoxicity in human MDA-MB-468 cells assessed as reduction in cell viability incubated for 24 hrs by MTT assay; conditions: MDA-MB-468, 24 h
HL60/ADR = experiment: Cytotoxicity in human HL60/ADR cells assessed as reduction in cell viability incubated for 24 hrs by MTT assay
A549 [2] = experiment: Cytotoxicity in human A549 cells assessed as reduction in cell viability incubated for 96 hrs by SRB assay; conditions: A549, 96 h
HT-29 [3] = experiment: Cytotoxicity in human HT-29 cells assessed as reduction in cell viability incubated for 96 hrs by SRB assay; conditions: HT-29, 96 h
SMMC-7721 = experiment: Cytotoxicity in human SMMC7721 cells assessed as reduction in cell viability incubated for 48 hrs by MTT assay; conditions: SMMC-7721, 48 h
SGC-7901 [4] = experiment: Cytotoxicity in human SGC7901 cells assessed as reduction in cell viability incubated for 48 hrs by MTT assay; conditions: SGC-7901, 48 h
HepG2 [5] = experiment: Cytotoxicity in human HepG2 cells assessed as reduction in cell viability incubated for 72 hrs by CCK8 assay; conditions: HepG2, 72 h
A549 [6] = experiment: Cytotoxicity in human A549 cells assessed as reduction in cell viability incubated for 72 hrs by CCK8 assay; conditions: A549, 72 h
HeLa [7] = experiment: Cytotoxicity in human HeLa cells assessed as reduction in cell viability incubated for 72 hrs by CCK8 assay
PC-3 = experiment: Cytotoxicity in human PC3 cells assessed as reduction in cell viability incubated for 72 hrs by CCK8 assay; conditions: PC-3, 72 h
B16-F10 = experiment: Cytotoxicity in mouse B16F10 cells assessed as reduction in cell viability incubated for 72 hrs by MTT assay; conditions: B16-F10, 72 h
HepG2 [8] = experiment: Cytotoxicity in human HepG2 cells assessed as reduction in cell viability incubated for 72 hrs by MTT assay; conditions: HepG2, 72 h
HT-29 [9] = experiment: Cytotoxicity in human HT-29 cells assessed as reduction in cell viability incubated for 72 hrs by MTT assay; conditions: HT-29, 72 h
SGC-7901 [10] = experiment: Cytotoxicity in human SGC7901 cells assessed as reduction in cell viability incubated for 72 hrs by CCK8 assay; conditions: SGC-7901, 72 h
MCF7 [11] = experiment: Cytotoxicity in human MCF7 cells assessed as reduction in cell viability incubated for 72 hrs by CCK8 assay; conditions: MCF7, 72 h
HepG2 [12] = experiment: Cytotoxicity in human HepG2 cells assessed as reduction in cell viability incubated for 24 hrs by MTT assay; conditions: HepG2, 24 h
MCF7 [13] = experiment: Cytotoxicity in human MCF7 cells assessed as reduction in cell viability
[14] = Cytotoxicity in human […] cells assessed as reduction in cell viability incubated for 72 hrs by MTT assay
[15] = Cytotoxicity in human SPC-A1 cells assessed as reduction in cell viability incubated for 24 hrs by MTT assay; conditions: SPCA1, 24 h
A-375 = experiment: Cytotoxicity in human A375 cells assessed as reduction in cell viability incubated for 24 hrs by MTT assay; conditions: A-375, 24 h
NCI-H446 = experiment: Cytotoxicity in human NCI-H446 cells assessed as reduction in cell viability incubated for 24 hrs by MTT assay; conditions: NCI-H446, 24 h
HepG2 [16] = experiment: Cytotoxicity in human HepG2 cells assessed as reduction in cell viability incubated for 48 hrs by MTT assay; conditions: HepG2, 48 h
HeLa [17] = experiment: Cytotoxicity in human HeLa cells assessed as reduction in cell viability incubated for 48 hrs by MTT assay

SMILES: CC1(C)CC[C@@]23CC[C@]4(C)[C@@](OC2=O)([C@@H]3C1)[C@@H](Br)C[C@@H]1[C@@]2(C)CC/C(=N\O)C(C)(C)[C@@H]2CC[C@]14C
- IC50 (MDA-MB-231): > 50 µM
- IC50 (MCF7 [1]): 6.58 µM
- IC50 (HL-60): 10.2 µM
- IC50 (T47D): 5.7 µM
- IC50 (MCF-12A): 20.4 µM
- IC50 (MDA-MB-468): 5.81 µM
- IC50 (HL60/ADR): 12.1 µM

SMILES: COC(=O)[C@]12CCC(C)(C)C[C@H]1C1=CC[C@@H]3[C@@]4(C)C[C@@H](OS(N)(=O)=O)[C@H](O)C(C)(C)[C@@H]4CC[C@@]3(C)[C@]1(C)CC2
- IC50 (A549 [2]): 6.4 µM
- IC50 (HT-29 [3]): 7.5 µM

SMILES: CC1=C(O)C(=O)C=C2C1=CC=C1[C@@]2(C)CC[C@@]2(C)[C@@H]3C[C@](C)(C(=O)NCCO)CC[C@]3(C)CC[C@]12C
- IC50 (SMMC-7721): 0.3 µM
- IC50 (SGC-7901 [4]): 0.16 µM

SMILES: CC(=O)OC[C@@]1(C)[C@@H]2CC[C@]3(C)[C@H](CC=C4[C@@H]5[C@@H](C)[C@H](C)CC[C@]5(C(=O)O)CC[C@]43C)[C@@]2(C)C[C@@H](OC(C)=O)[C@@H]1OC(C)=O
- IC50 (HepG2 [5]): 10.2 µM
- IC50 (A549 [6]): 21.1 µM
- IC50 (HeLa [7]): 24.2 µM
- IC50 (PC-3): 17.5 µM

SMILES: CC(=O)O[C@@H]1C[C@]2(C)[C@H]3CC=C4[C@@H]5CC(C)(C)CC[C@]5(C(=O)NCCCCCCCCCCC(=O)O)CC[C@@]4(C)[C@]3(C)CC[C@H]2C(C)(C)[C@H]1OC(C)=O
- IC50 (B16-F10): 2.4 µM
- IC50 (HepG2 [8]): 14.2 µM
- IC50 (HT-29 [9]): 3.1 µM

SMILES: COC(=O)C(C)NC(=O)[C@]12CC[C@@H](C)[C@H](C)[C@H]1C1=CC[C@@H]3[C@@]4(C)C[C@@H](OC(C)=O)[C@H](OC(C)=O)[C@@](C)(COC(C)=O)[C@@H]4CC[C@@]3(C)[C@]1(C)CC2 (stereo partly drawn)
- IC50 (HepG2 [5]): 0.3 µM
- IC50 (SGC-7901 [10]): 9.2 µM
- IC50 (A549 [6]): 3.1 µM
- IC50 (HeLa [7]): 5.1 µM
- IC50 (MCF7 [11]): 3.9 µM
- IC50 (PC-3): 10.1 µM

SMILES: COC(=O)[C@]12CCC(C)(C)C[C@H]1C1=CC(=O)[C@@H]3[C@@]4(C)CC/C(=N\O)C(C)(C)[C@@H]4CC[C@@]3(C)[C@]1(C)CC2
- IC50 (MDA-MB-231): 21.1 µM
- IC50 (MCF7 [1]): 3.22 µM
- IC50 (HL-60): 3.72 µM
- IC50 (T47D): 10.1 µM
- IC50 (MCF-12A): 25.7 µM
- IC50 (MDA-MB-468): 4.25 µM
- IC50 (HL60/ADR): 3.58 µM

SMILES: COC(=O)C(C)NC(=O)[C@]12CC[C@@H](C)[C@H](C)[C@H]1C1=CC[C@@H]3[C@@]4(C)C[C@@H](O)[C@H](O)[C@@](C)(CO)[C@@H]4CC[C@@]3(C)[C@]1(C)CC2 (stereo partly drawn)
- IC50 (HepG2 [5]): 20.5 µM
- IC50 (A549 [6]): 21.8 µM
- IC50 (HeLa [7]): 19.2 µM
- IC50 (MCF7 [11]): 17.1 µM

SMILES: C[C@H]1[C@H](C)CC[C@]2(C(N)=O)CC[C@]3(C)C(=CC[C@@H]4[C@@]5(C)CC[C@H](OC(=O)c6ccccc6)C(C)(C)[C@@H]5CC[C@]43C)[C@H]12
- IC50 (HepG2 [12]): 8 µM
- IC50 (MCF7 [13]): 44.6 µM

SMILES: C[C@H]1[C@H](C)CC[C@]2(C(=O)OCc3ccccc3)CC[C@]3(C)C(=CC[C@@H]4[C@@]5(C)CC[C@H](OC(=O)CCC(=O)O)C(C)(C)[C@@H]5CC[C@]43C)[C@H]12
- IC50 [14]: 8.1 µM

SMILES: CC(=O)OC[C@]1(C)[C@@H]2CC[C@]3(C)[C@H](C(=O)C=C4[C@H]5[C@](C(=O)OCC(=O)N/N=C/c6ccccc6)(CC[C@@H](C)[C@@]5(C)O)CC[C@]43C)[C@@]2(C)CC[C@@H]1OC(C)=O
- IC50 [15]: 8.6 µM
- IC50 (A-375): 3.1 µM
- IC50 (NCI-H446): 11.7 µM

SMILES: C[C@@H]1CC[C@]2(C(=O)O)CC[C@]3(C)C(=CC(=O)[C@@H]4[C@@]5(C)CC[C@H](O)[C@](C)(CO)[C@@H]5CC[C@]43C)[C@@H]2[C@]1(C)O
- IC50 (HepG2 [16]): 8.26 µM
- IC50 [15]: 86 µM
- IC50 (A-375): 16.6 to 17.4 µM
- IC50 (HepG2 [12]): 7.33 µM
- IC50 (NCI-H446): 11.4 µM
- IC50 (SGC-7901 [4]): 16.5 µM
- IC50 (HeLa [17]): 18.7 µM
